Key:
[1] = system: SMC (esophageal smooth muscle primary cells); assay: Growth inhibition assay (MTT), SMC; type: cell-based, human; conditions: purified YebF-I1 fusion protein and sinigrin, in words
Text: (§1) Cell culture and toxicity assay. While HCT116 human colorectal carcinoma cells (ATCC, Manassas, USA), LoVo human colorectal adenocarcinoma cells (ATCC), AGS human gastric adenocarcinoma cells (ATCC), MCF7 human breast adenocarcinoma cells (ATCC), human esophageal smooth muscle primary cells (SMCs) (Cell Biologics, Chicago, USA) and CT26 mouse colorectal carcinoma cells (ATCC) are used according to the claimed invention, other illustrative cell lines may similarly be utilized. Cells are cleared of mycoplasma contamination prior to use using Mycoalert™ PLUS mycoplasma detection kit (Lonza). HCT116 cells are cultured in McCoy's 5A medium, LoVo and AGS cells in Ham's F12 medium, MCF7 cells in DMEM medium, CT26 cells in RPMI medium, and SMCs in the specific medium kit purchased from Cell Biologics. […]
(§2) Cellular viability is measured at 3 hours, 24 hours and 72 hours post-treatment using the MTT assay (Sigma, St. Louis, USA). […] The MTT readout is fitted to a dose-response curve to determine the GI50 value (Eq. 2). Absorbance (570 nm)=Bottom+(Top−Bottom)/(1+10^(([Inhibitor]−Log 10 GI50))) (Eq. 2) HlpA binding assay. […] The cancer 394 cells are washed twice with 1×PBS and measured for DAPI and RFP emission. The fluorescence emission is compared on the linear standard curve of stained cells against the average fluorescence emission to determine the binding ratio of E. coli to cancer cells. […]

[2] = system: AGS gastric adenocarcinoma cells; assay: Growth inhibition assay (MTT), AGS; type: cell-based, human
Text: as §1, §2

[3] = system: LoVo colorectal adenocarcinoma cells; assay: Growth inhibition assay (MTT), LoVo; type: cell-based, human
Text: as §1, §2

[4] = system: CT26 colorectal carcinoma cells; assay: Growth inhibition assay (MTT), CT26; type: cell-based, mouse
Text: as §1, §2

[5] = system: HCT116 colorectal carcinoma cells; assay: Growth inhibition assay (MTT), HCT116; type: cell-based, human
Text: as §1, §2

[6] = system: MCF7 breast adenocarcinoma cells; assay: Growth inhibition assay (MTT), MCF7; type: cell-based, human
Text: as §1, §2

LoVo = assay: HlpA binding assay (GFP/DAPI ratio), LoVo; conditions: LoVo human colorectal cell line
Description: (§3) Cellular viability is measured at 3 hours, 24 hours and 72 hours post-treatment using the MTT assay (Sigma, St. Louis, USA). The inhibitory activity of myrosinase-converted AITC is performed by incubating cancer cells grown to 60% confluency with 0.1 μM of purified secreted I1 myrosinase with 0˜10 mM sinigrin at 37° C. and 5% CO2 and was sampled at 3 hours, 24 hours and 72 hours post-treatment. The MTT readout is fitted to a dose-response curve to determine the GI50 value (Eq. 2). Absorbance (570 nm)=Bottom+(Top−Bottom)/(1+10^(([Inhibitor]−Log 10 GI50))) (Eq. 2) HlpA binding assay. The HlpA gene sequence is optimized for E. coli expression, and the gene is cloned into a pET28b vector with an N-terminal GFP. GFP-HlpA and GFP are expressed using similar purification protocols, described above. […] Treated and adherent cells are washed with sterile PBS twice before staining with DAPI. The GFP/DAPI ratio is used to evaluate the binding ratio of protein binding per cell (Eq. 3). […] The cancer 394 cells are washed twice with 1×PBS and measured for DAPI and RFP emission. The fluorescence emission is compared on the linear standard curve of stained cells against the average fluorescence emission to determine the binding ratio of E. coli to cancer cells.

HCT116 = assay: HlpA binding assay (GFP/DAPI ratio), HCT116; conditions: HCT116 human colorectal cell line
Description: as §3

CT26 = assay: HlpA binding assay (GFP/DAPI ratio), CT26; conditions: CT26 murine colorectal cell line
Description: as §3

smooth muscle cells = assay: HlpA binding assay (GFP/DAPI ratio), smooth muscle cells; design: species or system human
Description: as §3

[7] = system: gastric (AGS) cancer cell line; assay: HlpA binding assay (GFP/DAPI ratio), AGS; design: species or system human
Description: as §3

[8] = system: breast (MCF7) cancer cell line; assay: HlpA binding assay (GFP/DAPI ratio), MCF7; design: species or system human
Description: as §3

[9] = 0.1 μM purified secreted I1 myrosinase with sinigrin
[10] = Homo sapiens, 0.1 μM purified secreted I1 myrosinase with 0~10 mM sinigrin, read-out: GI 50 value

Row | Compound | Inhibition of primary smooth muscle cell line [1] | Complete inhibition [2, 9] | GI50 [2, 10] | Complete inhibition [3, 9] | GI50 [3, 10] | Complete inhibition [4, 9] | GI50 ([4]; Mus musculus, 0.1 μM purified secreted I1 myrosinase with 0~10 mM sinigrin, read-out: GI 50 value) | Complete inhibition [5, 9] | GI50 ([5]; Homo sapiens, HCT-116, 0.1 μM purified secreted I1 myrosinase with 0~10 mM sinigrin, read-out: GI 50 value) | Complete inhibition [6, 9] | GI50 [6, 10] | binding affinity (LoVo) | binding affinity (HCT116) | binding affinity (CT26) | weaker binding affinity relative to colorectal cell lines (smooth muscle cells) | binding [7] | binding [8]
1 | C=CCN=C=S [YebF-I1-converted AITC, allyl isothiocyanate] | no inhibition | <24 h | 26 µM | <21 h | 232 µM | <24 h | 46 µM | <24 h | 155 µM | <24 h | 139 µM |  |  |  |  |  | 
2 | GFP-HlpA: purified N-terminal GFP-tagged Histone-like protein A (HlpA) from Streptococcus gallolyticus |  |  |  |  |  |  |  |  |  |  |  | sub-micromolar | sub-micromolar | sub-micromolar | 6 fold | No binding | No binding

Reference: patent US11925667B2, “Engineered therapeutic probiotic system and method” (priority 2018, dated 2024)
